Source: US12370161B2, “Composition for treating atopy or pruritus comprising N-acetyl or N-acyl amino acid” (STEMDR INC., priority 2017, dated 2025)

Tested on: atopic dermatitis-induced Balb/c mouse
Experiment: SCORAD clinical skin score, DNFB-induced atopic dermatitis in Balb/c mouse
Format: in vivo
Parameters: key to Mouse 1 Sum / Mean (of Sum, SCORAD) / Mouse 2 Sum / Mouse 3 Sum: sum of symptom grades, each 0 (none) to 3 (severe)
Settings: DNFB Balb/c; for Mouse 1 Erythema: 0.1% in PBS, 200 μL on back skin daily day 22-28, grade 0-3 (0 no symptom, 1 mild, 2 moderate, 3 severe); for Mouse 1 Abrasion / Mouse 1 Dryness / Mouse 1 Edema / Mouse 1 Eschar / Mouse 1 Lichenification / Mouse 1 Sum / Mouse 2 Abrasion / Mouse 2 Dryness / Mouse 2 Edema / Mouse 2 Erythema / Mouse 2 Eschar / Mouse 2 Lichenification / Mouse 2 Sum / Mouse 3 Abrasion / Mouse 3 Dryness / Mouse 3 Edema / Mouse 3 Erythema / Mouse 3 Eschar / Mouse 3 Lichenification / Mouse 3 Sum / Mean (of Sum, SCORAD): 0.1% topical day 22-28; for Mouse 1 Abrasion / Mouse 1 Dryness / Mouse 1 Edema / Mouse 1 Eschar / Mouse 1 Lichenification / Mouse 2 Abrasion / Mouse 2 Dryness / Mouse 2 Edema / Mouse 2 Erythema / Mouse 2 Eschar / Mouse 2 Lichenification / Mouse 3 Abrasion / Mouse 3 Dryness / Mouse 3 Edema / Mouse 3 Erythema / Mouse 3 Eschar / Mouse 3 Lichenification: grade 0-3; for Mouse 1 Sum / Mouse 2 Sum / Mouse 3 Sum: overall dermatitis score, sum of individual scores; for Mean (of Sum, SCORAD): mean of 3 mice
Experimental: In order to induce atopy-like dermatitis in Balb/c mice, DNFB sensitization was induced by applying 100 μL of 0.35% 2,4-dinitrofluorobenzene (DNFB) (Sigma, USA) in acetone/olive oil (3:1) on the shaved back skin of the mice. Then, dermatitis was induced by applying 100 μL of 0.25% DNFB on days 6, 9, 12, 15, 18 21, 24 and 27 on the shaved back skin. Control mice were treated with a vehicle of the same volume (FIG. 1A).
After dissolving an N-acetyl or N-acylamino acid in phosphate-buffered saline to 0.1%, 200 μL of the solution was applied on the back skin of the mice every day, from day 22 until day 28 for the Balb/c atopic dermatitis model, and from day 15 until day 21 for the Nc/Nga atopic dermatitis model. When the N-acetyl or N-acylamino acid was treated together with DNFB, they were treated with 12-hour intervals in order to avoid direct reaction between the DNFB and the N-acetyl or N-acylamino acid. A non-treated group and a 2,4-dinitrofluorobenzene (DNFB) group were treated with phosphate-buffered saline of the same volume (FIGS. 1A-1B). As the N-acetylamino acid, products purchased from Sigma-Aldrich (USA), MP scientific (USA), TCI (Tokyo Chemical Industry, Japan), Santacruz (USA), etc. were used without purification.
The degree of skin soothing and the severity of atopic dermatitis were evaluated macroscopically according to the previously established SCORAD (SCORing Atopic Dermatitis) method (Oranje et al., 2007). The degree of symptoms such as edema, erythema, eschar, dryness, abrasion, lichenification, etc. was graded from 0 to 3 (0, no symptom; 1, mild; 2, moderate; 3, severe). The overall dermatitis score was determined from the sum of all individual scores (Table 1). The assessment was performed by an investigator who was blind to the grouping of the mice.

CC(=O)N[C@@H](CCCCN)C(=O)O [N-acetyl-L-Lysine]
14: Mouse 3 Sum | Mean (of Sum, SCORAD)
2: Mouse 1 Abrasion | Mouse 1 Edema | Mouse 1 Eschar | Mouse 2 Abrasion | Mouse 2 Dryness | Mouse 2 Eschar | Mouse 3 Abrasion | Mouse 3 Edema | Mouse 3 Eschar | Mouse 3 Lichenification
1: Mouse 1 Lichenification
3: Mouse 1 Erythema | Mouse 1 Dryness | Mouse 2 Edema | Mouse 2 Erythema | Mouse 2 Lichenification | Mouse 3 Dryness | Mouse 3 Erythema
15: Mouse 2 Sum
13: Mouse 1 Sum

CC(=O)N[C@@H](CC(N)=O)C(=O)O [N-acetyl-L-asparagine]
2: Mouse 1 Edema | Mouse 1 Eschar | Mouse 1 Lichenification | Mouse 2 Dryness | Mouse 2 Edema | Mouse 2 Erythema | Mouse 3 Abrasion | Mouse 3 Lichenification
16: Mouse 3 Sum
15: Mouse 1 Sum | Mean (of Sum, SCORAD)
14: Mouse 2 Sum
3: Mouse 1 Erythema | Mouse 1 Abrasion | Mouse 1 Dryness | Mouse 2 Abrasion | Mouse 2 Eschar | Mouse 2 Lichenification | Mouse 3 Dryness | Mouse 3 Edema | Mouse 3 Erythema | Mouse 3 Eschar

CC(=O)N[C@@H](CC(=O)O)C(=O)O [N-acetyl-L-aspartic acid]
13: Mouse 1 Sum | Mean (of Sum, SCORAD)
2: Mouse 1 Abrasion | Mouse 1 Dryness | Mouse 1 Edema | Mouse 1 Eschar | Mouse 1 Lichenification | Mouse 2 Abrasion | Mouse 2 Edema | Mouse 2 Eschar | Mouse 2 Lichenification | Mouse 3 Abrasion | Mouse 3 Dryness | Mouse 3 Edema | Mouse 3 Eschar
14: Mouse 2 Sum
12: Mouse 3 Sum
3: Mouse 1 Erythema | Mouse 2 Dryness | Mouse 2 Erythema | Mouse 3 Erythema
1: Mouse 3 Lichenification

CC(=O)N[C@@H](CCC(=O)O)C(=O)O [N-acetyl-L-glutamic acid]
14: Mouse 1 Sum
12: Mouse 3 Sum
2: Mouse 1 Abrasion | Mouse 1 Dryness | Mouse 1 Edema | Mouse 1 Eschar | Mouse 2 Abrasion | Mouse 2 Edema | Mouse 2 Erythema | Mouse 2 Eschar | Mouse 2 Lichenification | Mouse 3 Abrasion | Mouse 3 Edema | Mouse 3 Eschar | Mouse 3 Lichenification
1: Mouse 3 Erythema
3: Mouse 1 Erythema | Mouse 1 Lichenification | Mouse 2 Dryness | Mouse 3 Dryness
13: Mouse 2 Sum | Mean (of Sum, SCORAD)

CC(=O)N[C@@H](CCC(N)=O)C(=O)O [N-acetyl-L-glutamine]
11: Mouse 3 Sum
13: Mouse 1 Sum
1: Mouse 3 Lichenification
2: Mouse 1 Erythema | Mouse 1 Abrasion | Mouse 1 Dryness | Mouse 1 Edema | Mouse 1 Eschar | Mouse 2 Abrasion | Mouse 2 Dryness | Mouse 2 Edema | Mouse 2 Erythema | Mouse 2 Eschar | Mouse 2 Lichenification | Mouse 3 Abrasion | Mouse 3 Dryness | Mouse 3 Edema | Mouse 3 Erythema | Mouse 3 Eschar
3: Mouse 1 Lichenification
12: Mouse 2 Sum | Mean (of Sum, SCORAD)

CC(=O)NCC(=O)O [N-acetyl-L-glycine]
14: Mouse 1 Sum
14.67: Mean (of Sum, SCORAD)
2: Mouse 1 Abrasion | Mouse 1 Dryness | Mouse 1 Edema | Mouse 1 Eschar | Mouse 2 Abrasion | Mouse 2 Edema | Mouse 2 Eschar | Mouse 3 Abrasion | Mouse 3 Edema | Mouse 3 Eschar
15: Mouse 2 Sum | Mouse 3 Sum
3: Mouse 1 Erythema | Mouse 1 Lichenification | Mouse 2 Dryness | Mouse 2 Erythema | Mouse 2 Lichenification | Mouse 3 Dryness | Mouse 3 Erythema | Mouse 3 Lichenification

CC(=O)N[C@@H](Cc1c[nH]cn1)C(=O)O [N-acetyl-L-histidine]
14.67: Mean (of Sum, SCORAD)
15: Mouse 1 Sum | Mouse 2 Sum
14: Mouse 3 Sum
2: Mouse 1 Abrasion | Mouse 1 Edema | Mouse 1 Eschar | Mouse 2 Abrasion | Mouse 2 Edema | Mouse 2 Eschar | Mouse 3 Abrasion | Mouse 3 Edema | Mouse 3 Eschar | Mouse 3 Lichenification
3: Mouse 1 Erythema | Mouse 1 Dryness | Mouse 1 Lichenification | Mouse 2 Dryness | Mouse 2 Erythema | Mouse 2 Lichenification | Mouse 3 Dryness | Mouse 3 Erythema

CC[C@H](C)[C@H](NC(C)=O)C(=O)O [N-acetyl-L-isoleucine]
15: Mouse 1 Sum
14: Mouse 2 Sum | Mouse 3 Sum
3: Mouse 1 Erythema | Mouse 1 Dryness | Mouse 1 Eschar | Mouse 1 Lichenification | Mouse 2 Dryness | Mouse 2 Lichenification | Mouse 3 Dryness | Mouse 3 Erythema | Mouse 3 Lichenification
1: Mouse 1 Abrasion | Mouse 3 Abrasion
2: Mouse 1 Edema | Mouse 2 Abrasion | Mouse 2 Edema | Mouse 2 Erythema | Mouse 2 Eschar | Mouse 3 Edema | Mouse 3 Eschar
14.33: Mean (of Sum, SCORAD)

CC(=O)N[C@@H](CC(C)C)C(=O)O [N-acetyl-L-leucine]
2: Mouse 1 Abrasion | Mouse 1 Edema | Mouse 1 Eschar | Mouse 1 Lichenification | Mouse 2 Abrasion | Mouse 2 Edema | Mouse 2 Eschar | Mouse 3 Abrasion | Mouse 3 Edema | Mouse 3 Eschar
15: Mouse 2 Sum
14: Mouse 1 Sum | Mean (of Sum, SCORAD)
13: Mouse 3 Sum
1: Mouse 3 Lichenification
3: Mouse 1 Erythema | Mouse 1 Dryness | Mouse 2 Dryness | Mouse 2 Erythema | Mouse 2 Lichenification | Mouse 3 Dryness | Mouse 3 Erythema

CSCC[C@H](NC(C)=O)C(=O)O [N-acetyl-L-methionine]
3: Mouse 1 Dryness | Mouse 1 Lichenification | Mouse 2 Dryness | Mouse 2 Erythema | Mouse 2 Eschar | Mouse 2 Lichenification | Mouse 3 Dryness | Mouse 3 Lichenification
14.67: Mean (of Sum, SCORAD)
14: Mouse 1 Sum | Mouse 3 Sum
2: Mouse 1 Erythema | Mouse 1 Abrasion | Mouse 1 Edema | Mouse 1 Eschar | Mouse 2 Abrasion | Mouse 2 Edema | Mouse 3 Abrasion | Mouse 3 Edema | Mouse 3 Erythema | Mouse 3 Eschar
16: Mouse 2 Sum

CC(=O)N[C@@H](Cc1ccccc1)C(=O)O [N-acetyl-L-phenylalanme]
15: Mouse 2 Sum
3: Mouse 1 Erythema | Mouse 1 Dryness | Mouse 2 Dryness | Mouse 2 Erythema | Mouse 2 Lichenification | Mouse 3 Dryness | Mouse 3 Erythema | Mouse 3 Lichenification
1: Mouse 1 Eschar | Mouse 3 Abrasion
2: Mouse 1 Abrasion | Mouse 1 Edema | Mouse 1 Lichenification | Mouse 2 Abrasion | Mouse 2 Edema | Mouse 2 Eschar | Mouse 3 Edema | Mouse 3 Eschar
13: Mouse 1 Sum
14: Mouse 3 Sum | Mean (of Sum, SCORAD)
